Experimental data reported in PMC2691177 (Biochemical Journal, 2009).

Target: human lysosomal HexA/HexB
Format: biochemical
Conditions: read-out: Hex A/B, Ki

`CC(=O)N[C@H]1/C(=N/OC(=O)Nc2ccccc2)O[C@H](CO)[C@@H](O)[C@@H]1O` [PUGNAc, O-(2-acetamido-2-deoxy-D-glucopyranosylidene)amino N-phenylcarbamate] was tested. Which Ki did it give?
The Ki was 25 ± 2.5 nM.
